# Data reported in ChEMBL document CHEMBL3792320, “Synthesis, biological evaluation and molecular docking studies of 2-amino-3,4,5-trimethoxyaroylindole derivatives as novel anticancer agents” (2016).
# Active and inactive are the calls of the source. No cut-off for these calls is given here.
# Key:
# Type in all cases: functional
# MCF7 [1] = assay: Cytotoxicity against human MCF7 cells assessed as reduction in cell growth after 48 hrs by SRB assay
# HT-29 = assay: Cytotoxicity against human HT-29 cells assessed as reduction in cell growth after 48 hrs by SRB assay
# MCF7 [2] = assay: Cytotoxicity against human MCF7 cells assessed as reduction in cell viability after 72 hrs by MTS assay; conditions: MCF7, 72 h
Compound,GI50 (MCF7 [1]),GI50 (HT-29),"GI50 (MCF7 [1]; MCF7, 48 h) [nM]","GI50 (HT-29; HT-29, 48 h) [nM]",GI50 (MCF7 [2]) [nM]
COc1cc(Cc2c[nH]c3ccc(C)cc23)c(N)c(OC)c1OC,inactive,inactive,,,
CCOC(=O)c1[nH]c2ccc(Br)cc2c1C(=O)c1cc(OC)c(OC)c(OC)c1N,,,425,5380,
COc1cc(C(=O)c2c[nH]c3ccc(Br)cc23)c(N)c(OC)c1OC,,,360,3830,
CCOC(=O)c1[nH]c2ccccc2c1C(=O)c1cc(OC)c(OC)c(OC)c1N,,,480,5630,
COC(=O)c1[nH]c2ccc(OC)cc2c1C(=O)c1cc(OC)c(OC)c(OC)c1N,,,102,1240,
COc1cc(Cc2c[nH]c3cccc(OC)c23)c(N)c(OC)c1OC,inactive,inactive,,,
COc1cc(C(=O)c2c[nH]c3cc(F)ccc23)c(N)c(OC)c1OC,,,42800,64200,
COc1ccc2c(C(=O)c3cc(OC)c(OC)c(OC)c3)c[nH]c2c1,,,,,7
COc1cc(C(=O)c2c[nH]c3ccccc23)c(N)c(OC)c1OC,,,900,9800,
CCOC(=O)c1[nH]c2ccc(Cl)cc2c1C(=O)c1cc(OC)c(OC)c(OC)c1N,,,590,6840,
COc1cc(Cc2c[nH]c3ccc(Cl)cc23)c(N)c(OC)c1OC,inactive,inactive,,,
COc1cc(Cc2c[nH]c3cc(F)ccc23)c(N)c(OC)c1OC,inactive,inactive,,,
COc1ccc(/C=C\c2cc(OC)c(OC)c(OC)c2)cc1O [COMBRETASTATIN A4],,,25,260,
COc1cc(C(=O)c2c[nH]c3c(OC)cccc23)c(N)c(OC)c1OC,,,9960,48600,
COc1cc(Cc2c[nH]c3c(OC)cccc23)c(N)c(OC)c1OC,inactive,inactive,,,
COc1ccc2c(Cc3cc(OC)c(OC)c(OC)c3N)c[nH]c2c1,,,1830,74800,
COc1cc(C(=O)c2c[nH]c3ccc(Cl)cc23)c(N)c(OC)c1OC,,,321,4850,
COc1cc2[nH]cc(Cc3cc(OC)c(OC)c(OC)c3N)c2cc1OC,inactive,inactive,,,
COc1cc(C(=O)c2c[nH]c3cccc(OC)c23)c(N)c(OC)c1OC,,,> 100000,> 100000,
COc1ccc2[nH]cc(Cc3cc(OC)c(OC)c(OC)c3N)c2c1,,,32800,> 100000,
COc1cc2[nH]cc(C(=O)c3cc(OC)c(OC)c(OC)c3N)c2cc1OC,,,38400,24400,
COC(=O)c1[nH]c2ccc(Cl)cc2c1C(=O)c1cc(OC)c(OC)c(OC)c1N,,,171,2140,
COc1ccc2[nH]cc(C(=O)c3cc(OC)c(OC)c(OC)c3N)c2c1,,,528,950,
COC(=O)c1[nH]c2ccc(Br)cc2c1C(=O)c1cc(OC)c(OC)c(OC)c1N,,,124,1940,
COC(=O)c1[nH]c2ccccc2c1C(=O)c1cc(OC)c(OC)c(OC)c1N,,,193,2380,
CCOC(=O)c1[nH]c2ccc(OC)cc2c1C(=O)c1cc(OC)c(OC)c(OC)c1N,,,540,5150,
COc1cc(Cc2c[nH]c3ccc(Br)cc23)c(N)c(OC)c1OC,inactive,inactive,,,
COc1cc(Cc2c[nH]c3ccccc23)c(N)c(OC)c1OC,,,45000,> 100000,
COc1cc(C(=O)c2c[nH]c3ccc(C)cc23)c(N)c(OC)c1OC,,,12400,> 100000,
COc1ccc2c(C(=O)c3cc(OC)c(OC)c(OC)c3N)c[nH]c2c1,,,13,143,
